Measurements published in patent publication US7910622B2, “Modulation of bacterial quorum sensing with synthetic ligands” (Wisconsin Alumni Research Foundation, priority 2007, dated 2011).
pEC50, pIC50: −log10 of the molar value. Like-named read-outs stand apart in the source and are kept apart here.

What was measured:
[1] = target: T1, TraR (Agrobacterium tumefaciens, UniProt P33905); experiment: cell-based; details: for A. tumefaciens-TraR Activation [%]: 10 μM ligand; for A. tumefaciens-TraR Activation [%] / A. tumefaciens-TraR Inhibition [%] / inhibition at 10 µM: A. tumefaciens WCF47 (pCF372), normalized to OOHL; for A. tumefaciens-TraR Inhibition [%]: 10 μM synthetic ligand against 100 nM OOHL; for inhibition at 10 µM: read-out: A. tumefaciens-TraR Inhibition [%], 10 μM synthetic ligand against 100 nM OOHL; for activation at 10 µM: read-out: A. tumefaciens-TraR Activation [%]
T1 construct: These strains lack their AHL synthase (I) genes, but retain their native R genes; endogenous in cells; host or cells: A. tumefaciens WCF47 (Δ-traI) with PtraI-lacZ plasmid pCF372
T1 sequence (P33905 whole entry): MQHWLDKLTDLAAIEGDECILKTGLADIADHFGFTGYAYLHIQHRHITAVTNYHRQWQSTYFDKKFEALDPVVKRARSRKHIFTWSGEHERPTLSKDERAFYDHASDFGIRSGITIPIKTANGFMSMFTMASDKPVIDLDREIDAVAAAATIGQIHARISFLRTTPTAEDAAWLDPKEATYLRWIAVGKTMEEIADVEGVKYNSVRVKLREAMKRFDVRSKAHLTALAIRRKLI

[2] = target: T2, LuxR (Aliivibrio fischeri, UniProt P35327); experiment: cell-based; set-up: species or system Vibrio fischeri; details: for V. fischeri-LuxR Activation [%]: 200 μM ligand; for V. fischeri-LuxR Activation [%] / activation at 200 µM: normalized to OHHL; for activation at 200 µM: read-out: V. fischeri-LuxR Activation [%], 200 μM ligand
T2 construct: a Δ-luxI derivative of V. fischeri ES114, in which the native lux operon behaves as the bioluminescent reporter; endogenous in cells; host or cells: V. fischeri ES114 (Δ-luxI)
T2 sequence (P35327 whole entry): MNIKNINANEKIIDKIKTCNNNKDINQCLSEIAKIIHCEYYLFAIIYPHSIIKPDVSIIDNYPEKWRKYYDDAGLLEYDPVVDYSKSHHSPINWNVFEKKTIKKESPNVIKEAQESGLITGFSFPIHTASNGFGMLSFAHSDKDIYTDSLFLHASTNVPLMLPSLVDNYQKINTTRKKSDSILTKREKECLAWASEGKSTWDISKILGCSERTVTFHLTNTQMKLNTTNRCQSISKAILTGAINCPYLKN
Procedure, shortened: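 Whole-cell luminescence reporter in V. fischeri ES114 (WT, Δ-luxI or Δ-luxR) or E. coli, overnight cultures diluted 1:10 and grown with compound at RT (E. coli 30° C) to OD600 0.35-0.4 (4-6 h). Luminescence normalized to cell density, triplicates; EC50/IC50 from sigmoidal fit.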

[3] = test system: wild-type V. fischeri ES114; experiment: Luminescence dose response in wild-type V. fischeri ES114; format: cell-based, Vibrio fischeri; details: relative to OHHL
Procedure: Vibrio fischeri assay procedures. For primary agonism assays, an appropriate amount of concentrated control or PHL (11) stock solution, to give a final concentration of 200 μM, was added to wells in a 96-well multititer plate. An overnight culture of V. fischeri ES114 (WT, Δ-luxI or Δ-luxR) was diluted 1:10 with LBS medium. A-200 μL portion of the diluted culture was added to each well of the plate. Plates were grown at RT with shaking (200 rpm) until the OD600=0.35-0.4 (4-6 h). Luminescence then was measured and normalized to cell density per well. […] Similar methods were used for dose response assays, except the concentrations of controls and PHLs 11 used were between 0.02 and 2×10^5 nM. All assays were performed in triplicate. IC50 and EC50 values were calculated using GraphPad Prism software using a sigmoidal curve fit.

[4] = target: T3, QscR (Pseudomonas aeruginosa, UniProt G3XD77); experiment: QscR competitive antagonism reporter gene assay (β-gal) against DDHL in recombinant E. coli (pJN105Q); format: cell-based
T3 construct: expressed in transfected cells; host or cells: recombinant E. coli (pJN105Q) with β-gal promoter fusion
T3 sequence (G3XD77 entry or part of it): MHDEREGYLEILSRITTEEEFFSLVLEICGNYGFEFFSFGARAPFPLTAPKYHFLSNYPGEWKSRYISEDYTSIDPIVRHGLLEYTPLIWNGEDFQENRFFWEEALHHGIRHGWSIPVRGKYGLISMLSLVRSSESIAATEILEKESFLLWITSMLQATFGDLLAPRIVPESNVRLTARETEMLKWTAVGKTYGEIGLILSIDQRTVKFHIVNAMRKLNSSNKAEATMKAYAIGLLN
Procedure: The bacterial reporter strains used in this study were: E. coli pJN105L (P. aeruginosa, LasR), P. aeruginosa MW1 yfp (LasR), E. coli pJN105Q (P. aeruginosa, QscR), A. tumefaciens WCF (TraR), and V. fischeri ES114-luxI (LuxR).
We screened our AHL libraries for agonistic and antagonistic activity against QscR using a previously reported, recombinant E. coli strain that reports QscR activity via the production of β-galactosidase (β-gal) from a promoter fusion. […] All AHLs were examined at 5 μM concentrations.

[5] = target: QscR:DNA binding (PA1897 promoter) (Pseudomonas aeruginosa, UniProt G3XD77)
Chain of QscR:DNA binding (PA1897 promoter) (G3XD77 entry or part of it): as above
Description: We sought to obtain further insights into the mechanism of QscR modulation by non-native AHLs. […] We therefore performed electromobility shift assays (EMSA) on purified QscR and radiolabeled PA1897 promoter in the presence of selected QscR antagonists and 1.

Row | Molecule | A. tumefaciens-TraR Activation [%] [1] [%] | A. tumefaciens-TraR Inhibition [%] [1] [%] | inhibition at 10 µM [1] [%] | V. fischeri-LuxR Activation [%] ([2]; V. fischeri ES114 (Δ-luxI)) | activation at 10 µM [1] [%] | activation at 200 µM ([2]; V. fischeri ES114 (Δ-luxI)) [%] | also measured
1 | 3-nitro PHL [B17] | 0 | 46 |  |  |  |  | pEC50 ([2]; V. fischeri ES114 (Δ-luxI), read-out: LuxR EC50): 6.46; luminescence induced higher than native ligand OHHL ([2]; primary agonism assay, 200 μM, same concentration as OHHL): 29%; activity in wild-type V. fischeri [3]: super-agonistic activity
2 | O=C(Cc1ccc(Br)cc1)N[C@H]1CCOC1=O [compound 8, N-(4-bromo-phenylacetanoyl)-L-homoserine lactone, reference compound] | 1 |  | ~90 | 3 |  |  | pIC50 ([1]; read-out: TraR IC50, determined against 100 nM OOHL): 5.33
3 | O=C(Cc1ccc(-c2ccccc2)cc1)N[C@H]1CCOC1=O [C18, 4-phenyl PHL] |  |  | ~70 |  | 0 | 7 | Activation (%) ([1]; A. tumefaciens-TraR, Library C primary agonism screen): 0%; Inhibition (%) ([1]; A. tumefaciens-TraR, Library C primary antagonism screen): 67%; Activation (%) ([2]; V. fischeri-LuxR, Library C primary agonism screen): 7%; pIC50 [4]: 7.52; inhibition of OdDHL-dependent QscR:DNA binding ([5]; 100:1 ratio with OdDHL): 85%; reduction of QscR:DNA binding ([5]; 1000:1 ratio vs. OdDHL): 100%; inhibition of OdDHL-dependent QscR:DNA binding ([5]; EMSA): capable of inhibiting OdDHL (1)-dependent QscR:DNA binding
4 | O=C(CCCc1c[nH]c2ccccc12)N[C@H]1CCOC1=O [A18, indole AHL, reference compound] | 0 | 35 |  | 3 |  |  | 
5 | O=C(Cc1ccc(Br)cc1)N[C@H]1CCOC1=O [A17, 4-bromo-phenylacetanoyl HL, reference compound] |  | 88 |  |  | 1 | 3 | pIC50 [1]: 5.33
6 | O=C(Cc1ccc(-c2ccccc2)cc1)NC1CCOC1=O (centres unmarked) [B21, 4-phenyl PHL] |  |  | ~70 |  | 0 | 7 | 
